Experiment [1] can be described thus: Vacuum infusing boneless poultry parts, organoleptic shelf life of the ground product. As to conditions: vacuum tumbled about 15 minutes at about -0.4 bar, stored at about 4° C., first failure of duplicates. As for the experimental part: Samples of poultry in an amount of about 1 pound were prepared from boneless poultry parts. Each sample was provided in a vacuum container of a vacuum tumbler in the presence of the antimicrobial solution (peroxyacetic acid (“PAA”) or peroxylactic acid (“PLA”)) provided in Table 1, with the control subjected to the same volume of sterile water. The pressure was reduced in the vacuum tumbler to about −0.4 bar, and the contents were rotated in the vacuum-tumbler while under pressure for a period of time of about 15 minutes. Pressure was then returned to atmospheric pressure and the contents of the vacuum container were subjected to grinding and then stored in a sealed plastic bag at about 4° C. The ground product was evaluated daily for appearance and order until reaching failure by abnormal coloration and/or odor. The Control and each microbial concentration sample was performed in duplicate, with the first date of organoleptic failure for the duplicate samples reported in Table 1.

A short description of experiment [2]: Vacuum infusing boneless beef parts, organoleptic shelf life of the ground product. The conditions noted are these: vacuum tumbled about 15 minutes at about -0.4 bar, stored at about 4° C., first failure of duplicates. As to the method: Samples of beef in an amount of about 1 pound were prepared from boneless beef parts. Each sample was provided in a vacuum container of a vacuum tumbler in the presence of the antimicrobial solution (peroxyacetic acid (“PAA”) or peroxylactic acid (“PLA”)) provided in Table 2, with the control subjected to the same volume of sterile water. The pressure was reduced in the vacuum tumbler to about −0.4 bar, and the contents were rotated in the vacuum-tumbler while under pressure for a period of time of about 15 minutes. Pressure was then returned to atmospheric pressure and the contents of the vacuum container were subjected to grinding and then stored in a sealed plastic bag at about 4° C. The ground product was evaluated daily for appearance and order until reaching failure by abnormal coloration and/or odor. The Control and each microbial concentration sample was performed in duplicate, with the first date of organoleptic failure for the duplicate samples reported in Table 1.

Turning to `CC(O)C(=O)OO` (stereo not shown) [PLA, peroxylactic acid], the “Days to Organoleptic Failure” value in experiment [1] (100 ppm) is 11 days; in experiment [1] (250 ppm) it was 14 days; in experiment [1] (500 ppm), 16 days; in experiment [1] (1000 ppm) it was 19 days; in experiment [2] (100 ppm), 11 days; in experiment [2] (250 ppm), 13 days. Besides, the “Days to Organoleptic Failure” value in experiment [2] (500 ppm) is 15 days; in experiment [2] (1000 ppm) it was 17 days.

As for peroxyacetic acid [PAA], the “Days to Organoleptic Failure” value in experiment [1] (100 ppm) worked out at 11 days; in experiment [1] (250 ppm), 13 days; in experiment [1] (500 ppm), 17 days; in experiment [1] (1000 ppm) it was 19 days; in experiment [2] (100 ppm), 11 days; in experiment [2] (250 ppm), 13 days. Also, the “Days to Organoleptic Failure” value in experiment [2] (500 ppm) worked out at 15 days; in experiment [2] (1000 ppm), 17 days.

For the origin of these results see patent US20200352201A1, “METHOD OF VACUUM […] WITH PEROXYC[…] SOLUTIONS” (ZEE COMPANY, INC., priority 2019, published 2020).
